{"source": "patent US20240116996A1", "about": "“METHODS AND COMPOSITIONS FOR TREATING A CORONAVIRUS INFECTION” (Recovery Therapeutics, Inc., priority 2021, published 2024)", "key": {"HAP1 cells": {"system": "HAP1 cells", "details": "increasing concentrations of FGF-2 up to 1 ng/mL, XTT"}, "[1]": {"system": "human coronavirus strain 229E (HCoV-229E)", "type": "cell-based", "details": "FGF-2 1 ng/mL to 0.003 ng/mL, XTT"}, "[2]": {"system": "SARS-CoV-2 (strain USA-WA1/2020)", "type": "in vivo, Golden Syrian hamsters", "details": "lungs on D6"}}, "note": "Like-named read-outs stand apart in the source and are kept apart here.", "data": [{"substance": "FGF-2: Recombinant human FGF-2 (SEQ ID NO. 1, 18 kDa low molecular weight isoform); Sigma-Aldrich F0291 in Example 1, PeproTech 100-18B in Example 2", "values": [{"measurement": "toxicity", "setting": "HAP1 cells", "value": "without toxicity"}, {"measurement": "EC50 (dose-dependent enhancement of cell survival)", "setting": "[1]", "value": 0.08, "unit": "ng/mL"}, {"measurement": "reduction in viral load compared to vehicle-treated animals", "setting": "[2]; 20 μg FGF-2 intravenous on D-1, D0, D1, D2", "value": 51, "unit": "%"}, {"measurement": "reduction in viral load compared to vehicle-treated animals", "setting": "[2]; 50 μg FGF-2 intravenous on D-1, D0, D1, D2", "value": 73, "unit": "%"}]}]}
